According to patent US10442803B2, “Tricyclic heterocycles as bet protein inhibitors” (Incyte Corporation, priority 2013, dated 2019):
Counter-ions that a name gives are not always drawn.

What follows are molecules tested on KMS.12.BM cells (assay: KMS.12.BM cell viability assay). Conditions: 72 h; KMS.12.BM human myeloma cells, 3 days, Cell Titer-GLO ATP quantitation; read-out: KMS cellular IC50.
Format: cell-based
Method in brief: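 IC50 derived from luminescent ATP quantitation (Cell Titer-GLO) of viable cells after 3-day compound treatment. KMS.12.BM human myeloma line seeded at 5000 cells/well in RPMI with 10% FBS.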

Compound | IC50 [nM]
CCN1CC(CC#N)(n2ccc(-c3cc4c(ccc5nnc(C)n54)n3Cc3cccc(Cl)c3)n2)C1 [Example 158, (3-{3-[6-(3-Chlorobenzyl)-1-methyl-6H-pyrrolo[2,3-e][1,2,4]triazolo[4,3-a]pyridin-7-yl]-1H-pyrazol-1-yl}-1-ethylazetidin-3-yl)acetonitrile bis(trifluoroacetate) salt] | ≤ 1000
Cc1nnc2ccc3c(cc(-c4ccn(CCC(N)=O)n4)n3Cc3cccc(Cl)c3)n12 [Example 159, 3-{3-[6-(3-Chlorobenzyl)-1-methyl-6H-pyrrolo[2,3-e][1,2,4]triazolo[4,3-a]pyridin-7-yl]-1H-pyrazol-1-yl}propanamide trifluoroacetate salt] | ≤ 1000
CCN1CC(n2ccc(-c3cc4c(ccc5nnc(C)n54)n3Cc3cccc(Cl)c3)n2)C1 [Example 160, 6-(3-Chlorobenzyl)-7-[1-(1-ethylazetidin-3-yl)-1H-pyrazol-3-yl]-1-methyl-6H-pyrrolo[2,3-e][1,2,4]triazolo[4,3-a]pyridine bis(trifluoroacetate) salt] | ≤ 1000
Cc1nnc2ccc3c(cc(-c4ccn(C5CN(S(=O)(=O)N(C)C)C5)n4)n3Cc3cccc(Cl)c3)n12 [Example 161, 3-{3-[6-(3-Chlorobenzyl)-1-methyl-6H-pyrrolo[2,3-e][1,2,4]triazolo[4,3-a]pyridin-7-yl]-1H-pyrazol-1-yl}-N,N-dimethylazetidine-1-sulfonamide bis(trifluoroacetate) salt] | ≤ 1000
Cc1nnc2ccc3c(cc(-c4ccn(C5CN(C(=O)CN(C)C)C5)n4)n3Cc3cccc(Cl)c3)n12 [Example 162, 2-(3-{3-[6-(3-Chlorobenzyl)-1-methyl-6H-pyrrolo[2,3-e][1,2,4]triazolo[4,3-a]pyridin-7-yl]-1H-pyrazol-1-yl}azetidin-1-yl)-N,N-dimethyl-2-oxoethanamine bis(trifluoroacetate) salt] | ≤ 1000
CCC(=O)N1CC(n2ccc(-c3cc4c(ccc5nnc(C)n54)n3Cc3cccc(Cl)c3)n2)C1 [Example 163, 6-(3-Chlorobenzyl)-1-methyl-7-[1-(1-propionylazetidin-3-yl)-1H-pyrazol-3-yl]-6H-pyrrolo[2,3-e][1,2,4]triazolo[4,3-a]pyridine trifluoroacetate salt] | ≤ 1000
Cc1nnc2ccc3c(cc(-c4ccn(C5CN(C(=O)C6CC6)C5)n4)n3Cc3cccc(Cl)c3)n12 [Example 164, 6-(3-Chlorobenzyl)-7-{1-[1-(cyclopropylcarbonyl)azetidin-3-yl]-1H-pyrazol-3-yl}-1-methyl-6H-pyrrolo[2,3-e][1,2,4]triazolo[4,3-a]pyridine trifluoroacetate salt] | ≤ 1000
Cc1nnc2ccc3c(cc(-c4ccn(C5CN(S(=O)(=O)C6CC6)C5)n4)n3Cc3cccc(Cl)c3)n12 [Example 165, 6-(3-Chlorobenzyl)-7-{1-[1-(cyclopropylsulfonyl)azetidin-3-yl]-1H-pyrazol-3-yl}-1-methyl-6H-pyrrolo[2,3-e][1,2,4]triazolo[4,3-a]pyridine trifluoroacetate salt] | ≤ 1000
CCS(=O)(=O)N1CC(n2ccc(-c3cc4c(ccc5nnc(C)n54)n3Cc3cccc(Cl)c3)n2)C1 [Example 166, 6-(3-Chlorobenzyl)-7-{1-[1-(ethylsulfonyl)azetidin-3-yl]-1H-pyrazol-3-yl}-1-methyl-6H-pyrrolo[2,3-e][1,2,4]triazolo[4,3-a]pyridine trifluoroacetate salt] | ≤ 1000
CCOC(=O)N1CC(n2ccc(-c3cc4c(ccc5nnc(C)n54)n3Cc3cccc(Cl)c3)n2)C1 [Example 167, Ethyl 3-{3-[6-(3-chlorobenzyl)-1-methyl-6H-pyrrolo[2,3-e][1,2,4]triazolo[4,3-a]pyridin-7-yl]-1H-pyrazol-1-yl}azetidine-1-carboxylate trifluoroacetate salt] | ≤ 1000
Cc1nnc2ccc3c(cc(-c4ccn(CCC(=O)NC5COC5)n4)n3Cc3cccc(Cl)c3)n12 [Example 168, 3-{3-[6-(3-Chlorobenzyl)-1-methyl-6H-pyrrolo[2,3-e][1,2,4]triazolo[4,3-a]pyridin-7-yl]-1H-pyrazol-1-yl}-N-oxetan-3-ylpropanamide trifluoroacetate salt] | ≤ 1000
Cc1nnc2ccc3c(cc(-c4ccn(CCC(=O)N5CCOCC5)n4)n3Cc3cccc(Cl)c3)n12 [Example 169, 6-(3-Chlorobenzyl)-1-methyl-7-[1-(3-morpholin-4-yl-3-oxopropyl)-1H-pyrazol-3-yl]-6H-pyrrolo[2,3-e][1,2,4]triazolo[4,3-a]pyridine trifluoroacetate salt] | ≤ 1000
Cc1nnc2ccc3c(cc(-c4ccn(CCC(=O)NC5CCOCC5)n4)n3Cc3cccc(Cl)c3)n12 [Example 170, 3-{3-[6-(3-Chlorobenzyl)-1-methyl-6H-pyrrolo[2,3-e][1,2,4]triazolo[4,3-a]pyridin-7-yl]-1H-pyrazol-1-yl}-N-(tetrahydro-2H-pyran-4-yl)propanamide trifluoroacetate salt] | ≤ 1000
Cc1nnc2ccc3c(cc(-c4ccn(CCC(=O)NC5CN(C)C5)n4)n3Cc3cccc(Cl)c3)n12 [Example 171, 3-{3-[6-(3-Chlorobenzyl)-1-methyl-6H-pyrrolo[2,3-e][1,2,4]triazolo[4,3-a]pyridin-7-yl]-1H-pyrazol-1-yl}-N-(1-methylazetidin-3-yl)propanamide bis(trifluoroacetate) salt] | ≤ 1000
Cc1nnc2ccc3c(cc(-c4c[nH]cn4)n3Cc3cccc(Cl)c3)n12 [Example 172, 6-(3-Chlorobenzyl)-7-(1H-imidazol-4-yl)-1-methyl-6H-pyrrolo[2,3-e][1,2,4]triazolo[4,3-a]pyridine bis(trifluoroacetate) salt] | ≤ 1000
Cc1nnc2ccc3c(cc(-c4ccn(CCCO)n4)n3Cc3cccc(Cl)c3)n12 [Example 173, 3-{3-[6-(3-Chlorobenzyl)-1-methyl-6H-pyrrolo[2,3-e][1,2,4]triazolo[4,3-a]pyridin-7-yl]-1H-pyrazol-1-yl}propan-1-ol trifluoroacetate salt] | ≤ 1000
CNC(=O)CCn1ccc(-c2cc3c(ccc4nnc(C)n43)n2Cc2cccc(Cl)c2)n1 [Example 174, 3-{3-[6-(3-Chlorobenzyl)-1-methyl-6H-pyrrolo[2,3-e][1,2,4]triazolo[4,3-a]pyridin-7-yl]-1H-pyrazol-1-yl}-N-methylpropanamide trifluoroacetate salt] | ≤ 1000
CCNC(=O)CCn1ccc(-c2cc3c(ccc4nnc(C)n43)n2Cc2cccc(Cl)c2)n1 [Example 175, 3-{3-[6-(3-Chlorobenzyl)-1-methyl-6H-pyrrolo[2,3-e][1,2,4]triazolo[4,3-a]pyridin-7-yl]-1H-pyrazol-1-yl}-N-ethylpropanamide trifluoroacetate salt] | ≤ 1000
Cc1nnc2ccc3c(cc(-c4ccn(CCC(=O)NC(C)(C)C)n4)n3Cc3cccc(Cl)c3)n12 [Example 176, N-(tert-Butyl)-3-{3-[6-(3-chlorobenzyl)-1-methyl-6H-pyrrolo[2,3-e][1,2,4]triazolo[4,3-a]pyridin-7-yl]-1H-pyrazol-1-yl}propanamide trifluoroacetate salt] | ≤ 1000
Cc1nnc2ccc3c(cc(-c4ccn(C5COC5)n4)n3Cc3cccc(Cl)c3)n12 [Example 177, 6-(3-Chlorobenzyl)-1-methyl-7-(1-oxetan-3-yl-1H-pyrazol-3-yl)-6H-pyrrolo[2,3-e][1,2,4]triazolo[4,3-a]pyridine trifluoroacetate salt] | ≤ 1000
Cc1nnc2ccc3c(cc(-c4ccn(CCO)n4)n3Cc3cccc(Cl)c3)n12 [Example 178, 2-{3-[6-(3-Chlorobenzyl)-1-methyl-6H-pyrrolo[2,3-e][1,2,4]triazolo[4,3-a]pyridin-7-yl]-1H-pyrazol-1-yl}ethanol trifluoroacetate salt] | ≤ 1000
Cc1nnc2ccc3c(cc(-c4ccn(C5CN(CCO)C5)n4)n3Cc3cccc(Cl)c3)n12 [Example 179, 2-(3-{3-[6-(3-Chlorobenzyl)-1-methyl-6H-pyrrolo[2,3-e][1,2,4]triazolo[4,3-a]pyridin-7-yl]-1H-pyrazol-1-yl}azetidin-1-yl)ethanol bis(trifluoroacetate) salt] | ≤ 1000
Cc1nnc2ccc3c(cc(-c4ccn(C5CN(C)C5)n4)n3Cc3cccc(Cl)c3)n12 [Example 180, 6-(3-Chlorobenzyl)-1-methyl-7-[1-(1-methylazetidin-3-yl)-1H-pyrazol-3-yl]-6H-pyrrolo[2,3-e][1,2,4]triazolo[4,3-a]pyridine bis(trifluoroacetate) salt] | ≤ 1000
Cc1nnc2ccc3c(cc(-c4ccn(C5CN(CCC#N)C5)n4)n3Cc3cccc(Cl)c3)n12 [Example 181, 3-(3-{3-[6-(3-Chlorobenzyl)-1-methyl-6H-pyrrolo[2,3-e][1,2,4]triazolo[4,3-a]pyridin-7-yl]-1H-pyrazol-1-yl}azetidin-1-yl)propanenitrile bis(trifluoroacetate) salt] | ≤ 1000
Cc1nnc2ccc3c(cc(-c4ccn(CCC#N)n4)n3Cc3cccc(CN4CCC4)c3)n12 [Example 183, 3-(3-{6-[3-(Azetidin-1-ylmethyl)benzyl]-1-methyl-6H-pyrrolo[2,3-e][1,2,4]triazolo[4,3-a]pyridin-7-yl}-1H-pyrazol-1-yl)propanenitrile bis(trifluoroacetate) salt] | ≤ 1000
Cc1nnc2ccc3c(cc(-c4ccn(C)n4)n3Cc3cccc(CN4CCC4)c3)n12 [Example 184, 6-[3-(Azetidin-1-ylmethyl)benzyl]-1-methyl-7-(1-methyl-1H-pyrazol-3-yl)-6H-pyrrolo[2,3-e][1,2,4]triazolo[4,3-a]pyridine bis(trifluoroacetate) salt] | ≤ 1000

Same assay, conditions: KMS.12.BM human myeloma cells, 3 days, Cell Titer-GLO ATP quantitation; read-out: KMS cellular IC50

Compound | IC50 [nM]
Cc1nnc2ccc3c(cc(-c4cc[nH]n4)n3Cc3cccc(CN4CCC4)c3)n12 [Example 182, 6-[3-(Azetidin-1-ylmethyl)benzyl]-1-methyl-7-(1H-pyrazol-3-yl)-6H-pyrrolo[2,3-e][1,2,4]triazolo[4,3-a]pyridine tris(trifluoroaceate) salt] | ≤ 1000
